Several values for one entry are separate records, joined by “and”; a condition that tells them apart may be missing. Equal values may be shown once.
Assays:
[1] = target: T1, Human neutrophil elastase (HNE) (Homo sapiens, UniProt P08246); assay: HNE activity inhibitory bioassay (MeO-Suc-Ala-Ala-Pro-Val-pNA hydrolysis, absorbance 405 nm); format: biochemical; conditions: for IC50: in vitro HNE assay, read-out: IC50, HNE inhibition; for Anti-HNE activity, inhibitory ratio: n = 3; for inhibition at 100 µM: tetracyclic triterpenoids (Table S3)
T1 construct: HNE (EC 3.4.21.37) from human leukocytes was purchased; purchased Innovative Research Company (Novi, Michigan); host or cells: human leukocytes (natural source)
T1 sequence (P08246 30-247 limits assumed): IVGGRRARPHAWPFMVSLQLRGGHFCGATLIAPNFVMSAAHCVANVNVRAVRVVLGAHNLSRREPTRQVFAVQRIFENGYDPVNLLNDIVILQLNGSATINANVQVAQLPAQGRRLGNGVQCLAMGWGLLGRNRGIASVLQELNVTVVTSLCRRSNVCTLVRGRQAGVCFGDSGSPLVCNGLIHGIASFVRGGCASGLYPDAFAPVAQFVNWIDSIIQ

HNE = target: T2, HNE (Homo sapiens, UniProt P08246); assay: 1H NMR spin-lattice relaxation rates (Rns, Rse) of ligand with and without HNE; format: binding; conditions: pH 7.0, 298 K;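 further: ligand in d6-DMSO with 50 mM phosphate buffer, selective and nonselective spin-lattice rates from an inversion-recovery pulse sequence, computed by initial-rate approximation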
T2 construct: HNE (EC 3.4.21.37) from human leukocytes was purchased; purchased Innovative Research Company (Novi, Michigan); host or cells: human leukocytes (natural source)
T2 sequence (P08246 30-247 limits assumed): T1 sequence (P08246 30-247 limits assumed)

[2] = target: T1, Human neutrophil elastase (HNE); assay: Enzyme inhibition kinetic analysis of HNE (Michaelis-Menten / Lineweaver-Burk); format: biochemical
[3] = test system: acute smoke-induced airway inflammation in mice; assay: Acute smoke-induced lung (airway) inflammation model in mice, BALF analysis
[4] = smoke exposure, 50 mg/kg intraperitoneal

COC(=O)[C@]12CCC(C)(C)C[C@H]1[C@H]1C(=O)C=C3[C@@]4(C)C=C(C#N)C(=O)C(C)(C)[C@@H]4CC[C@@]3(C)[C@]1(C)CC2 [CDDO-Me, C-28 methyl ester of 2-cyano-3,12-dioxoolen-1,9-dien-28-oic acid, reference compound]
IC50 [1]: 16.6 µM

C[C@H]1[C@H](C)CC[C@]2(C(=O)O)CC[C@]3(C)C(=CC[C@@H]4[C@@]5(C)CC[C@H](O)C(C)(C)[C@@H]5CC[C@]43C)[C@H]12 [Compound 1, ursolic acid]
Anti-HNE activity, inhibitory ratio ([1]; 1 µM compound): 12.22±6.64%
Anti-HNE activity, inhibitory ratio ([1]; 1 µM compound, listed as Ursolic acid (1)): 12.2%
Anti-HNE activity, inhibitory ratio ([1]; 3 µM compound): 36.47±5.75 %
Anti-HNE activity, inhibitory ratio ([1]; 10 µM compound): 80.84±3.14 %
Anti-HNE activity, inhibitory ratio ([1]; 30 µM compound): 82.98±5.67 %
Anti-HNE activity, inhibitory ratio ([1]; 30 µM compound, listed as ursolic acid): more than 80%
Anti-HNE activity, inhibitory ratio ([1]; 100 µM compound): 88.47±2.96 %
IC50 [1]: 5.51 µM and ~5.51 µM
Rns/Rse, proton H3 (HNE; free ligand 1 mM): 0.93
Rns/Rse, proton H12 (HNE; free ligand 1 mM): 0.88
Rns/Rse, proton H18 (HNE; free ligand 1 mM): 0.92
Rns/Rse, proton H3 (HNE; ligand 1 mM + HNE 5 µM): 0.73
Rns/Rse, proton H12 (HNE; ligand 1 mM + HNE 5 µM): 0.62
Rns/Rse, proton H18 (HNE; ligand 1 mM + HNE 5 µM): 0.81
mode of HNE inhibition with respect to substrate ([2]; 0, 3, 10 µM ursolic acid, six substrate concentrations 0.2-2 mM, 37°C): competitively inhibits HNE
apparent maximum velocity Vmax′, trend ([2]; as a function of ursolic acid concentration 0-10 µM, P>0.05): invariable
apparent Michaelis-Menten constant Kapp, trend ([2]; ursolic acid increasing from 0 µM to 10 µM, P<0.05): increased
inhibition of the smoke-induced increase in BALF NE ([3]; 50 mg/kg intraperitoneal): 54%
inhibition of the smoke-induced increase in BALF TNF-α ([3]; 50 mg/kg intraperitoneal): 38%
dose with significant inhibition of BALF TNF-α ([3]; doses 10, 30, 100 mg/kg, dose-dependent): ≥ 10 mg/kg
dose with significant inhibition of BALF NE ([3]; doses 10, 30, 100 mg/kg, dose-dependent, P<0.05): 30 mg/kg
levels of BALF NE and TNF-α in vivo ([3]; smoke exposure): significantly suppressed
number of neutrophils in BALF [3, 4]: significantly reduced
number of total leukocytes in BALF [3, 4]: significantly reduced

CC1(C)[C@@H](O)CC[C@]2(C)[C@H]3C(=O)C=C4[C@@H]5C[C@@](C)(C(=O)O)CC[C@]5(C)CC[C@@]4(C)[C@]3(C)CC[C@@H]12 [Compound 3, glycyrrhetinic acid]
Anti-HNE activity, inhibitory ratio ([1]; 1 µM compound): 0.06±6.40%
Anti-HNE activity, inhibitory ratio ([1]; 3 µM compound): 1.05±5.24%
Anti-HNE activity, inhibitory ratio ([1]; 10 µM compound): 21.09±4.96%
Anti-HNE activity, inhibitory ratio ([1]; 30 µM compound): 45.84±0.41 %
Anti-HNE activity, inhibitory ratio ([1]; 100 µM compound): 75.20±2.89 %
IC50 [1]: ~36.9 µM
Rns/Rse, proton H3 (HNE; free ligand 1 mM): 0.96
Rns/Rse, proton H5 (HNE; free ligand 1 mM): 0.92
Rns/Rse, proton H12 (HNE; free ligand 1 mM): 0.94
Rns/Rse, proton H18 (HNE; free ligand 1 mM): 2.29
Rns/Rse, proton H3 (HNE; ligand 1 mM + HNE 5 µM): 0.74
Rns/Rse, proton H5 (HNE; ligand 1 mM + HNE 5 µM): 0.84
Rns/Rse, proton H12 (HNE; ligand 1 mM + HNE 5 µM): 0.85
Rns/Rse, proton H18 (HNE; ligand 1 mM + HNE 5 µM): 0.81

CC1(C)[C@@H](O[C@H]2O[C@H](C(=O)O)[C@@H](O)[C@H](O)[C@H]2O[C@@H]2O[C@H](C(=O)O)[C@@H](O)[C@H](O)[C@H]2O)CC[C@]2(C)[C@H]3C(=O)C=C4[C@@H]5C[C@@](C)(C(=O)O)CC[C@]5(C)CC[C@@]4(C)[C@]3(C)CC[C@@H]12 [Compound 4, glycyrrhizin]
Anti-HNE activity, inhibitory ratio ([1]; 1 µM compound): 10.25±1.73%
Anti-HNE activity, inhibitory ratio ([1]; 3 µM compound): 19.00±6.99 %
Anti-HNE activity, inhibitory ratio ([1]; 10 µM compound): 28.21±4.84 %
Anti-HNE activity, inhibitory ratio ([1]; 30 µM compound): 40.89±1.28 %
Anti-HNE activity, inhibitory ratio ([1]; 100 µM compound): 78.66±1.99 %
IC50 [1]: ~27.6 µM
Rns/Rse, proton H9 (HNE; free ligand 1 mM): 0.64
Rns/Rse, proton H12 (HNE; free ligand 1 mM): 0.87
Rns/Rse, proton glc-H1’ (HNE; free ligand 1 mM): 0.54
Rns/Rse, proton glc-H1” (HNE; free ligand 1 mM): 0.49
Rns/Rse, proton H9 (HNE; ligand 1 mM + HNE 5 µM): 0.64
Rns/Rse, proton H12 (HNE; ligand 1 mM + HNE 5 µM): 0.74
Rns/Rse, proton glc-H1’ (HNE; ligand 1 mM + HNE 5 µM): 0.31
Rns/Rse, proton glc-H1” (HNE; ligand 1 mM + HNE 5 µM): 0.47

C=C(C)[C@@H]1CC[C@]2(C(=O)O)CC[C@]3(C)[C@H](CC[C@@H]4[C@@]5(C)CC[C@H](O)C(C)(C)[C@@H]5CC[C@]43C)[C@@H]12 [Compound 5, betulinic acid]
Anti-HNE activity, inhibitory ratio ([1]; 1 µM compound): 8.25±1.88%
Anti-HNE activity, inhibitory ratio ([1]; 3 µM compound): 46.57±2.47 %
Anti-HNE activity, inhibitory ratio ([1]; 10 µM compound): 74.20±2.32 %
Anti-HNE activity, inhibitory ratio ([1]; 30 µM compound): 80.58±2.21 %
Anti-HNE activity, inhibitory ratio ([1]; 30 µM compound, listed as betulinic acid): more than 80%
Anti-HNE activity, inhibitory ratio ([1]; 100 µM compound): 82.41±1.37 %
IC50 [1]: ~6.83 µM
Rns/Rse, proton H13 (HNE; free ligand 1 mM): 1.51
Rns/Rse, proton H19 (HNE; free ligand 1 mM): 0.82
Rns/Rse, proton H24 (HNE; free ligand 1 mM): 1.02
Rns/Rse, proton H29a (HNE; free ligand 1 mM): 0.96
Rns/Rse, proton H29b (HNE; free ligand 1 mM): 0.97
Rns/Rse, proton H13 (HNE; ligand 1 mM + HNE 5 µM): 0.97
Rns/Rse, proton H19 (HNE; ligand 1 mM + HNE 5 µM): 0.79
Rns/Rse, proton H24 (HNE; ligand 1 mM + HNE 5 µM): 0.95
Rns/Rse, proton H29a (HNE; ligand 1 mM + HNE 5 µM): 0.95
Rns/Rse, proton H29b (HNE; ligand 1 mM + HNE 5 µM): 0.96

C=C(C)[C@@H]1CC[C@]2(C)CC[C@]3(C)[C@H](CC[C@@H]4[C@@]5(C)CC[C@H](O)C(C)(C)[C@@H]5CC[C@]43C)[C@@H]12 [Compound 6, lupeol]
Anti-HNE activity, inhibitory ratio ([1]; 1 µM compound): 9.38±6.80%
Anti-HNE activity, inhibitory ratio ([1]; 3 µM compound): 19.01±10.00 %
Anti-HNE activity, inhibitory ratio ([1]; 10 µM compound): 51.92±15.22 %
Anti-HNE activity, inhibitory ratio ([1]; 30 µM compound): 88.00±6.26 %
Anti-HNE activity, inhibitory ratio ([1]; 30 µM compound, listed as lupeol): more than 80%
Anti-HNE activity, inhibitory ratio ([1]; 100 µM compound): 93.56±1.19 %
IC50 [1]: ~8.2 µM
Rns/Rse, proton H13 (HNE; free ligand 1 mM): 1.67
Rns/Rse, proton H19 (HNE; free ligand 1 mM): 1.03
Rns/Rse, proton H24 (HNE; free ligand 1 mM): 1.03
Rns/Rse, proton H29a (HNE; free ligand 1 mM): 1.23
Rns/Rse, proton H29b (HNE; free ligand 1 mM): 1.24
Rns/Rse, proton H13 (HNE; ligand 1 mM + HNE 5 µM): 1.27
Rns/Rse, proton H19 (HNE; ligand 1 mM + HNE 5 µM): 1.00
Rns/Rse, proton H24 (HNE; ligand 1 mM + HNE 5 µM): 1.03
Rns/Rse, proton H29a (HNE; ligand 1 mM + HNE 5 µM): 1.23
Rns/Rse, proton H29b (HNE; ligand 1 mM + HNE 5 µM): 1.22

CC(C)(O)[C@@H]1CC[C@](C)([C@H]2[C@@H](O)C[C@@]3(C)[C@@H]4C[C@H](O[C@@H]5O[C@H](CO)[C@@H](O)[C@H](O)[C@H]5O)[C@H]5C(C)(C)[C@@H](O[C@@H]6OC[C@@H](O)[C@H](O)[C@H]6O)CC[C@@]56C[C@@]46CC[C@]23C)O1 [Compound 7, astragaloside IV]
inhibition at 100 µM [1]: 3.27%
levels of BALF NE and TNF-α in vivo ([3]; smoke exposure): did not observe the inhibitory effects
airway inflammation ([3]; smoke exposure, intraperitoneal, negative control): did not inhibit

CC(C)=CCCC(C)(OC1OC(CO)C(O)C(O)C1O)C1CCC2(C)C1C(O)CC1C3(C)CCC(O)C(C)(C)C3C(OC3OC(CO)C(O)C(O)C3OC3OC(C)C(O)C(O)C3O)CC12C (stereo not drawn) [Compound 8]
inhibition at 100 µM [1]: 4.01%

CC(=O)OC(C)(C)/C=C/C(=O)[C@](C)(O)[C@H]1[C@H](O)C[C@@]2(C)[C@@H]3CC=C4[C@@H](C[C@H](O)C(=O)C4(C)C)[C@]3(C)C(=O)C[C@]12C [Compound 9]
inhibition at 100 µM [1]: 5.77%

CC(C)=CCCC1(C)CCC2(C)C3CCC4(C)C(C)C(=O)CCC4C3(C)CCC2(C)C1 (stereo not drawn) [Compound 10]
inhibition at 100 µM [1]: 2.33%

CC(=O)OC1CC(O)C23COC(O)C1(C)C2CC(O)C1(C)C3C(=O)C(OC(C)=O)C2(C)C(c3ccoc3)CC3OC321 (stereo not drawn) [Compound 11]
inhibition at 100 µM [1]: 4.28%

CC(C)C1=CC(=O)C(C)(C2[C@H](O)C[C@@]3(C)[C@@H]4CC=C5[C@@H](CC[C@@H](OC6OCC(O)C(O)C6OC6OC(C)C(O)C(O)C6O)C5(C)C)[C@]4(C)C(=O)C[C@]23C)O1 (stereo partly drawn) [Compound 12]
inhibition at 100 µM [1]: 0.8%

CC(C)(C)C(=O)Oc1ccc(S(=O)(=O)Nc2ccccc2C(=O)NCC(=O)O)cc1 [ONO-5046, Sivelestat sodium hydrate, reference compound]
smoke-induced increase in BALF inflammatory cells and proinflammatory cytokine levels ([3]; intraperitoneal, positive control): prevented

Source: paper PMC3869726, “Inhibition of Human Neutrophil Elastase by Pentacyclic Triterpenes” (PLoS ONE, 2013)
